Laboratory results published in PMC9926234, “Iterative computational design and crystallographic screening identifies potent inhibitors targeting the Nsp3 macrodomain of SARS-CoV-2” (Proceedings of the National Academy of Sciences of the …, 2023).
pIC50, pKi: −log10 of the molar value.

Each compound was assayed on SARS-CoV-2 NSP3 Mac1 (assay: Overall hit call (binding in crystallographic soaking or the HTRF-based binding assay)). Settings: not given.
Description: Supplement pnas.2212931120.sd01.xlsx, sheet "Compound Summary" | column: HIT*
In the case of O=C(O)C1(F)CN(c2ncnc3[nH]c4cc(F)ccc4c23)CC12COC2 (stereo not shown) [LL123_0031], the “HIT*” value was “Y”. O=C(O)C1(F)CN(c2ncnc3[nH]c4cc(F)ccc4c23)CC1C1CC1 (stereo not shown) [LL123_0032] was tested, and the “HIT*” value was “Y”. In the case of CN(Cc1ccccn1)c1ncnc2[nH]c3cc(F)ccc3c12 [LRM-0028], the “HIT*” value was “Y”. In the case of O=S1(=O)CC(CNc2ncnc3[nH]ccc23)C1 [SRH-0005], the “HIT*” value was “Y”. For O=S1(=O)CCCC(Nc2ncnc3[nH]ccc23)C1 (stereo not shown) [SRH-0010], the “HIT*” value was “Y”. For O[C@@H]1CC[C@H](Nc2ncnc3[nH]ccc23)C1 [SRH-0018], the “HIT*” value was “Y”. c1ccc(CNc2ncnc3[nH]ccc23)nc1 [SRH-0028] was tested, and the “HIT*” value was “Y”. For CCC(=O)Nc1nc(C)c(S(=O)(=O)Nc2cccc(C#N)c2)s1 [Z0611], the “HIT*” value was “Y”. O=C(O)CC(NC(=O)c1cc(F)cc2[nH]cnc12)c1ccc(Br)cc1 (stereo not shown) [Z3722] was tested, and the “HIT*” value was “Y”.

These compounds were tested against T1, SARS-CoV-2 NSP3 Mac1 (Severe acute respiratory syndrome coronavirus 2, UniProt P0DTD1) (assay: not given). Settings: PanDDA 1-BDC of the event; compound stock 100 mM, Echo dispense volume 40 nl.
Assay type: binding
CN(Cc1ccccn1)c1ncnc2[nH]c3cc(F)ccc3c12 [LRM-0028] gave a 1-BDC of 0.14.

Same assay, conditions: PanDDA 1-BDC of the event; compound stock 100 mM, Echo dispense volume 80 nl
With O=C(O)C1(F)CN(c2ncnc3[nH]c4cc(F)ccc4c23)CC12COC2 (stereo not shown) [LL123_0031] the 1-BDC was 0.08. O=C(O)C1(F)CN(c2ncnc3[nH]c4cc(F)ccc4c23)CC1C1CC1 (stereo not shown) [LL123_0032] showed a 1-BDC of 0.14. In the case of CN(Cc1ccccn1)c1ncnc2[nH]c3cc(F)ccc3c12 [LRM-0028], the 1-BDC was 0.15.

Same assay, conditions: PanDDA event map 1-BDC; crystal soak, Compound_concentration 100 mM; PanDDA run dmso_34 or nohits_35 per dataset
For O=C(O)C1(F)CN(c2ncnc3[nH]c4cc(F)ccc4c23)CC1C1CC1 (stereo not shown) [LL123_0032], the 1-BDC was 0.1. For O=S1(=O)CCCC(Nc2ncnc3[nH]ccc23)C1 (stereo not shown) [SRH-0010], the 1-BDC was 0.13. In the case of c1ccc(CNc2ncnc3[nH]ccc23)nc1 [SRH-0028], the 1-BDC was 0.09.

Same assay, conditions: PanDDA event map, 1 minus background density correction; crystal soaking of Mac1
For O=C(O)C1(F)CN(c2ncnc3[nH]c4cc(F)ccc4c23)CC12COC2 (stereo not shown) [LL123_0031], the “1-BDC (PanDDA)” value was 0.08. With O=C(O)C1(F)CN(c2ncnc3[nH]c4cc(F)ccc4c23)CC1C1CC1 (stereo not shown) [LL123_0032] the “1-BDC (PanDDA)” value was 0.12. CN(Cc1ccccn1)c1ncnc2[nH]c3cc(F)ccc3c12 [LRM-0028] was tested, and the “1-BDC (PanDDA)” value was 0.15. With O=S1(=O)CC(CNc2ncnc3[nH]ccc23)C1 [SRH-0005] the 1-BDC was 0.09. With O=S1(=O)CCCC(Nc2ncnc3[nH]ccc23)C1 (stereo not shown) [SRH-0010] the “1-BDC (PanDDA)” value was 0.13. In the case of O[C@@H]1CC[C@H](Nc2ncnc3[nH]ccc23)C1 [SRH-0018], the 1-BDC was 0.07. c1ccc(CNc2ncnc3[nH]ccc23)nc1 [SRH-0028] was tested, and the “1-BDC (PanDDA)” value was 0.09.

Same assay, conditions: PanDDA event map; crystal soak, Compound_concentration 100 mM, Echo_dispense_volume 40 nl
In the case of O=C(O)C1(F)CN(c2ncnc3[nH]c4cc(F)ccc4c23)CC1C1CC1 (stereo not shown) [LL123_0032], the 1-BDC was 0.12.

Same assay, conditions: crystal soak, Compound_concentration 100 mM, Echo dispense 40 nl; PanDDA run dmso_34 or nohits_35 per dataset
In the case of O=C(O)C1(F)CN(c2ncnc3[nH]c4cc(F)ccc4c23)CC1C1CC1 (stereo not shown) [LL123_0032], the “PanDDA hit?” value was “TRUE”. In the case of O=S1(=O)CCCC(Nc2ncnc3[nH]ccc23)C1 (stereo not shown) [SRH-0010], the “PanDDA hit?” value was “TRUE”. In the case of c1ccc(CNc2ncnc3[nH]ccc23)nc1 [SRH-0028], the “PanDDA hit?” value was “TRUE”.

Same assay, conditions: crystal soak, Compound_concentration 100 mM, Echo_dispense_volume 40 nl; PanDDA run (background map) dmso_34, nohits_35 or nohits_62
O=C(O)C1(F)CN(c2ncnc3[nH]c4cc(F)ccc4c23)CC1C1CC1 (stereo not shown) [LL123_0032] was tested, and the “PanDDA hit?” value was “TRUE”.

Same assay, conditions: crystal soak, compound stock 100 mM, Echo dispense volume 40 nl
For CN(Cc1ccccn1)c1ncnc2[nH]c3cc(F)ccc3c12 [LRM-0028], the “PanDDA hit?” value was “TRUE”.

Same assay, conditions: crystal soak, compound stock 100 mM, Echo dispense volume 80 nl
In the case of O=C(O)C1(F)CN(c2ncnc3[nH]c4cc(F)ccc4c23)CC12COC2 (stereo not shown) [LL123_0031], the “PanDDA hit?” value was “TRUE”. For O=C(O)C1(F)CN(c2ncnc3[nH]c4cc(F)ccc4c23)CC1C1CC1 (stereo not shown) [LL123_0032], the “PanDDA hit?” value was “TRUE”. In the case of CN(Cc1ccccn1)c1ncnc2[nH]c3cc(F)ccc3c12 [LRM-0028], the “PanDDA hit?” value was “TRUE”.

Same assay, conditions: ligand modeled from this dataset; compound concentration 100 mM
With O=S1(=O)CC(CNc2ncnc3[nH]ccc23)C1 [SRH-0005] the “Modeled?” value was “TRUE”. With O[C@@H]1CC[C@H](Nc2ncnc3[nH]ccc23)C1 [SRH-0018] the “Modeled?” value was “TRUE”.

Same assay, conditions: ligand modeled in structure; compound stock 100 mM, Echo dispense volume 80 nl
For O=C(O)C1(F)CN(c2ncnc3[nH]c4cc(F)ccc4c23)CC12COC2 (stereo not shown) [LL123_0031], the “Modeled?” value was “TRUE”. For CN(Cc1ccccn1)c1ncnc2[nH]c3cc(F)ccc3c12 [LRM-0028], the “Modeled?” value was “TRUE”.

Same assay, conditions: ligand modeled in this dataset; crystal soak, Compound_concentration 100 mM
With O=S1(=O)CCCC(Nc2ncnc3[nH]ccc23)C1 (stereo not shown) [SRH-0010] the “Modeled?” value was “TRUE”. With c1ccc(CNc2ncnc3[nH]ccc23)nc1 [SRH-0028] the “Modeled?” value was “TRUE”.

Same assay, conditions: ligand modeled; crystal soak, Compound_concentration 100 mM, Echo_dispense_volume 40 nl
With O=C(O)C1(F)CN(c2ncnc3[nH]c4cc(F)ccc4c23)CC1C1CC1 (stereo not shown) [LL123_0032] the “Modeled?” value was “TRUE”.

Same assay, conditions: ligand occupancy after refinement (phenix.refine); crystal soaking of Mac1
O=C(O)C1(F)CN(c2ncnc3[nH]c4cc(F)ccc4c23)CC12COC2 (stereo not shown) [LL123_0031] gave a Refined occupancy of 16. O=C(O)C1(F)CN(c2ncnc3[nH]c4cc(F)ccc4c23)CC1C1CC1 (stereo not shown) [LL123_0032] showed a Refined occupancy of 24. For CN(Cc1ccccn1)c1ncnc2[nH]c3cc(F)ccc3c12 [LRM-0028], the Refined occupancy was 30. O=S1(=O)CC(CNc2ncnc3[nH]ccc23)C1 [SRH-0005] was tested, and the Refined occupancy was 18. For O=S1(=O)CCCC(Nc2ncnc3[nH]ccc23)C1 (stereo not shown) [SRH-0010], the Refined occupancy was 26. For O[C@@H]1CC[C@H](Nc2ncnc3[nH]ccc23)C1 [SRH-0018], the Refined occupancy was 14. For c1ccc(CNc2ncnc3[nH]ccc23)nc1 [SRH-0028], the Refined occupancy was 18.

The compounds below were run against T1, SARS-CoV-2 NSP3 Mac1 (assay: biochemical). Settings: HTRF ADPr-conjugated peptide displacement; read-out: IC50.
Assay type: binding
In the case of O=C(O)C1(F)CN(c2ncnc3[nH]c4cc(F)ccc4c23)CC12COC2 (stereo not shown) [LL123_0031], the pIC50 was 4.63. O=C(O)C1(F)CN(c2ncnc3[nH]c4cc(F)ccc4c23)CC1C1CC1 (stereo not shown) [LL123_0032] gave a pIC50 of 4.38. For CCC(=O)Nc1nc(C)c(S(=O)(=O)Nc2cccc(C#N)c2)s1 [Z0611], the pIC50 was 3.84. O=C(O)CC(NC(=O)c1cc(F)cc2[nH]cnc12)c1ccc(Br)cc1 (stereo not shown) [Z3722] gave a pIC50 of 4.58.

Same assay, conditions: HTRF ADPr-peptide displacement from SARS-CoV-2 Mac1; read-out: IC50
For O=C(O)C1(F)CN(c2ncnc3[nH]c4cc(F)ccc4c23)CC12COC2 (stereo not shown) [LL123_0031], the pIC50 was 4.64.

Same assay, conditions: read-out: Ki***
For O=C(O)C1(F)CN(c2ncnc3[nH]c4cc(F)ccc4c23)CC12COC2 (stereo not shown) [LL123_0031], the pKi was 4.69. Work on O=C(O)C1(F)CN(c2ncnc3[nH]c4cc(F)ccc4c23)CC1C1CC1 (stereo not shown) [LL123_0032] yielded a pKi of 4.44. For CCC(=O)Nc1nc(C)c(S(=O)(=O)Nc2cccc(C#N)c2)s1 [Z0611], the pKi was 3.91. O=C(O)CC(NC(=O)c1cc(F)cc2[nH]cnc12)c1ccc(Br)cc1 (stereo not shown) [Z3722] showed a pKi of 4.64.
